The results in this text go back to patent US6395760B1, “Pesticidal 1-arylpyrazoles” (Rhone-Poulenc Inc., priority 1997, dated 2002).

Common to all, as to parameters: key: ‘X’ means highly active; ‘+’ means moderately active; ‘−’ means low activity
Assay [1] concerns Schizaphis graminum. Nature of the assay: Soil drench test (systemic activity), greenbug on sorghum plants. It is filed as in vivo. To be noted: 10.0 ppm soil concentration by weight, counts at 5 DAT vs untreated control. From the text:
(§1) The Soil Drench Test (Systemic Activity) Cotton and sorghum plants were established in pots. One day prior to treatment, each pot was infested with about 25 aphids of a mixed population. Cotton plants were infested with aphids and sorghum plants were infested with the greenbug. The selected compound of formula (I) was applied to the soil surface in a dilution that delivered the equivalent of 10.0 ppm soil concentration by weight. Aphid counts were obtained at 5 DAT (=days after treatment). The number of aphids on the treated plants was compared to the number of those on the untreated control plants.

The test system of assay [2] is Aphis gossypii. Nature of the assay: Soil drench test (systemic activity), aphids on cotton plants. To be noted: 10.0 ppm soil concentration by weight, aphid counts at 5 DAT vs untreated control. It is filed as in vivo.
Description: as §1

Assay [3] concerns Musca domestica. Nature of the assay: Housefly bait/contact test. It is filed as in vivo. Conditions: 50 ppm in sugar water bait solution, adult houseflies, mortality after 24 hours. An excerpt:
The Housefly Bait/Contact Test About 25 four to six-day-old adult houseflies were anesthetized and placed in a cage with a sugar water bait solution containing the compound. The concentration of the selected compound of formula (I) in the bait solution was 50 ppm.

In assay [4] the test system is A. gossypii. The experiment in a line: Foliar application (contact test) with aphids. The class given is in vivo, Aphis gossypii. Conditions: 100 ppm formulation sprayed to runoff on aphid-infested cotton plants, dead aphids counted three days after treatment. From the text:
Foliar Application (Contact Test) with Aphids Aphid-infested cotton plants were placed on a revolving turntable, and sprayed to runoff with a 100 ppm formulation of the selected compound of formula (I). The treated, A. gossypii-infested plants were held for three days after treatment, after which the dead aphids were counted.

For the molecule `CNc1c([S+](C)[O-])c(C2(C)OCCO2)nn1-c1c(Cl)cc(C(F)(F)F)cc1Cl` (racemic) [Compound 39], the “Systemic activity on greenbugs” value in assay [1] is on record as “X”. In assay [2], the “Systemic activity on aphids” value is recorded as “+”. Besides, the “Activity on house flies by contact” value in assay [3] is reported as “−”.

As to `COC(C)(OC)c1nn(-c2c(Cl)cc(C(F)(F)F)cc2Cl)c(N)c1SC` [Compound 1, 5-amino-1-[2,6-dichloro-4-(trifluoromethyl)phenyl]-3-[(1,1-dimethoxy)ethyl]-4-methylthio-1H-pyrazole], the “Systemic activity on greenbugs” value in assay [1] is “X”. For the same molecule, in assay [2], the “Systemic activity on aphids” value is listed as “X”. Besides, the “Foliar activity on aphids” value in assay [4] is “+”. The “Activity on house flies by contact” value in assay [3] is reported as “X”.

On to `COC(C)(OC)c1nn(-c2c(Cl)cc(C(F)(F)F)cc2Cl)c(N)c1[S+](C)[O-]` (stereo not shown) [Compound 2], for which the “Systemic activity on greenbugs” value in assay [1] is “X”. Further, the “Systemic activity on aphids” value in assay [2] was “+”. Further, in assay [4], the “Foliar activity on aphids” value is “X”. Also, the “Activity on house flies by contact” value in assay [3] is listed as “X”.

Take `CSc1c(C2(C)OCCO2)nn(-c2c(Cl)cc(C(F)(F)F)cc2Cl)c1N` [Compound 3]: the “Systemic activity on greenbugs” value in assay [1] is on record as “X”. For the same molecule, the “Systemic activity on aphids” value in assay [2] is recorded as “X”. Further, the “Foliar activity on aphids” value in assay [4] is reported as “X”. Moreover, the “Activity on house flies by contact” value in assay [3] was “X”.

In the case of `CSc1c(C2(C)OCC(C)O2)nn(-c2c(Cl)cc(C(F)(F)F)cc2Cl)c1N` (stereo not shown) [Compound 4], the “Systemic activity on greenbugs” value in assay [1] is “X”. For the same molecule, in assay [2], the “Systemic activity on aphids” value is “X”. Further, the “Foliar activity on aphids” value in assay [4] was “X”. For the same molecule, the “Activity on house flies by contact” value in assay [3] is “X”.

On to `CC1(c2nn(-c3c(Cl)cc(C(F)(F)F)cc3Cl)c(N)c2S(C)(=O)=O)OCCO1` [Compound 5], for which the “Systemic activity on greenbugs” value in assay [1] was “X”. Besides, the “Systemic activity on aphids” value in assay [2] is recorded as “X”. Also, the “Foliar activity on aphids” value in assay [4] is listed as “X”. Also, the “Activity on house flies by contact” value in assay [3] is “X”.

Consider `CSc1c(C2(C)OCC(CO)O2)nn(-c2c(Cl)cc(C(F)(F)F)cc2Cl)c1N` (stereo not shown) [Compound 6], for which the “Systemic activity on greenbugs” value in assay [1] is listed as “X”. In addition, the “Systemic activity on aphids” value in assay [2] is “+”. Besides, in assay [4], the “Foliar activity on aphids” value is recorded as “−”. For the same molecule, the “Activity on house flies by contact” value in assay [3] is given as “−”.

As to `CC1(c2nn(-c3c(Cl)cc(C(F)(F)F)cc3Cl)c(N)c2S(C)(=O)=O)OCC(CO)O1` (stereo not shown) [Compound 7], the “Systemic activity on greenbugs” value in assay [1] is “X”. In addition, in assay [2], the “Systemic activity on aphids” value is recorded as “X”. Besides, the “Foliar activity on aphids” value in assay [4] was “X”. In addition, the “Activity on house flies by contact” value in assay [3] was “+”.

For `CC1COC(C)(c2nn(-c3c(Cl)cc(C(F)(F)F)cc3Cl)c(N)c2S(C)(=O)=O)O1` (stereo not shown) [Compound 8], in assay [1], the “Systemic activity on greenbugs” value is “X”. Moreover, in assay [2], the “Systemic activity on aphids” value is “X”. Further, the “Foliar activity on aphids” value in assay [4] is reported as “X”. In addition, the “Activity on house flies by contact” value in assay [3] is reported as “X”.

With `C[S+]([O-])c1c(C2(C)OCCO2)nn(-c2c(Cl)cc(C(F)(F)F)cc2Cl)c1N` (stereo not shown) [Compound 10, 5-amino-1-[2,6-dichloro-4-(trifluoromethyl)phenyl]-3-(2-methyl-1,3-dioxolane-2-yl)-4-methylsulfinyl-1H-pyrazole], the “Systemic activity on greenbugs” value in assay [1] is “X”. In addition, the “Systemic activity on aphids” value in assay [2] is on record as “X”. Moreover, the “Foliar activity on aphids” value in assay [4] was “X”. Besides, the “Activity on house flies by contact” value in assay [3] is recorded as “X”.

On to `CC1COC(C)(c2nn(-c3c(Cl)cc(C(F)(F)F)cc3Cl)c(N)c2[S+](C)[O-])O1` (stereo not shown) [Compound 11], for which the “Systemic activity on greenbugs” value in assay [1] is “X”. Besides, the “Systemic activity on aphids” value in assay [2] was “X”. Further, the “Foliar activity on aphids” value in assay [4] was “X”. For the same molecule, the “Activity on house flies by contact” value in assay [3] is listed as “X”.

Consider `CSc1c(C2(C)OCCCO2)nn(-c2c(Cl)cc(C(F)(F)F)cc2Cl)c1N` [Compound 12], for which the “Systemic activity on greenbugs” value in assay [1] was “X”. Besides, the “Systemic activity on aphids” value in assay [2] is recorded as “X”. In assay [4], the “Foliar activity on aphids” value was “X”. Besides, the “Activity on house flies by contact” value in assay [3] is on record as “X”.

With `CC1(c2nn(-c3c(Cl)cc(C(F)(F)F)cc3Cl)c(N)c2S(C)(=O)=O)OCCCO1` [Compound 13], the “Systemic activity on greenbugs” value in assay [1] was “X”. For the same molecule, the “Foliar activity on aphids” value in assay [4] was “X”. The “Activity on house flies by contact” value in assay [3] is reported as “X”.

`CSc1c(C2(C)OCC(CO)(CO)CO2)nn(-c2c(Cl)cc(C(F)(F)F)cc2Cl)c1N` [Compound 14]: the “Systemic activity on aphids” value in assay [2] is reported as “−”. For the same molecule, the “Foliar activity on aphids” value in assay [4] is “−”. For the same molecule, the “Activity on house flies by contact” value in assay [3] is on record as “−”.

`C[S+]([O-])c1c(C2(C)NCCS2)nn(-c2c(Cl)cc(C(F)(F)F)cc2Cl)c1N` (stereo not shown) [Compound 15, 5-amino-1-[2,6-dichloro-4-(trifluoromethyl)phenyl]-3-(2-methylthiazolidine-2-yl)-4-methylsulfinyl-1H-pyrazole]: the “Systemic activity on greenbugs” value in assay [1] is recorded as “X”. Further, the “Systemic activity on aphids” value in assay [2] is given as “X”. Also, the “Foliar activity on aphids” value in assay [4] was “−”. Also, the “Activity on house flies by contact” value in assay [3] is “X”.

Consider `CSc1c(C2(C)SCCS2)nn(-c2c(Cl)cc(C(F)(F)F)cc2Cl)c1N` [Compound 16, 5-amino-1-[2,6-dichloro-4-(trifluoromethyl)phenyl]-3-(2-methyl-1,3-dithiolane-2-yl)-4-methylthio-1H-pyrazole], for which, in assay [1], the “Systemic activity on greenbugs” value is listed as “X”. Moreover, in assay [2], the “Systemic activity on aphids” value was “−”. For the same molecule, in assay [4], the “Foliar activity on aphids” value is on record as “+”. Further, the “Activity on house flies by contact” value in assay [3] is “X”.

As for `CC1(c2nn(-c3c(Cl)cc(C(F)(F)F)cc3Cl)c(N)c2S(C)(=O)=O)SCCS1` [Compound 17], the “Systemic activity on greenbugs” value in assay [1] is listed as “X”. For the same molecule, the “Systemic activity on aphids” value in assay [2] is “X”. In assay [4], the “Foliar activity on aphids” value was “+”. For the same molecule, the “Activity on house flies by contact” value in assay [3] is “X”.

With `C[S+]([O-])c1c(C2(C)SCCS2)nn(-c2c(Cl)cc(C(F)(F)F)cc2Cl)c1N` (stereo not shown) [Compound 18], in assay [1], the “Systemic activity on greenbugs” value is “+”. Besides, the “Systemic activity on aphids” value in assay [2] is listed as “−”. Also, the “Foliar activity on aphids” value in assay [4] was “X”. For the same molecule, the “Activity on house flies by contact” value in assay [3] is “X”.

As to `CSc1c(C2(C)SCC[S+]2[O-])nn(-c2c(Cl)cc(C(F)(F)F)cc2Cl)c1N` (stereo not shown) [Compound 19], in assay [1], the “Systemic activity on greenbugs” value is recorded as “+”. The “Systemic activity on aphids” value in assay [2] was “−”. For the same molecule, in assay [4], the “Foliar activity on aphids” value is reported as “X”. For the same molecule, the “Activity on house flies by contact” value in assay [3] is given as “X”.

For `C[S+]([O-])c1c(C2(C)SCC[S+]2[O-])nn(-c2c(Cl)cc(C(F)(F)F)cc2Cl)c1N` (stereo not shown) [Compound 20], the “Systemic activity on greenbugs” value in assay [1] was “−”. For the same molecule, in assay [2], the “Systemic activity on aphids” value is on record as “−”. Also, the “Foliar activity on aphids” value in assay [4] is given as “−”. In assay [3], the “Activity on house flies by contact” value was “X”.

For `CC1(c2nn(-c3c(Cl)cc(C(F)(F)F)cc3Cl)c(N)c2S(C)(=O)=O)OCCS1` (stereo not shown) [Compound 23, 5-amino-1-[2,6-dichloro-4-(trifluoromethyl)phenyl]-3-(2-methyl-1,3-oxathiolane-2-yl)-4-methylsulfonyl-1H-pyrazole], in assay [2], the “Systemic activity on aphids” value is on record as “X”. For the same molecule, the “Activity on house flies by contact” value in assay [3] is “−”.

As for `CSc1c(C2(C)OCCS2)nn(-c2c(Cl)cc(C(F)(F)F)cc2Cl)c1N` (stereo not shown) [Compound 24], the “Systemic activity on greenbugs” value in assay [1] is listed as “X”. Moreover, the “Systemic activity on aphids” value in assay [2] is “X”.

Take `CC1(c2nn(-c3c(Cl)cc(C(F)(F)F)cc3Cl)c(N)c2S(C)(=O)=O)S(=O)(=O)CCS1(=O)=O` [Compound 25, 5-amino-1-[2,6-dichloro-4-(trifluoromethyl)phenyl]-3-(2-methyl-1,1,3,3-tetraoxo-1,3-dithiolane-2-yl)-4-methylsulfonyl-1H-pyrazole]: the “Systemic activity on aphids” value in assay [2] is “−”. Besides, the “Activity on house flies by contact” value in assay [3] was “−”.

On to `CSCC1COC(C)(c2nn(-c3c(Cl)cc(C(F)(F)F)cc3Cl)c(N)c2S(C)(=O)=O)O1` (stereo not shown) [Compound 30], for which, in assay [2], the “Systemic activity on aphids” value is on record as “X”. Further, in assay [3], the “Activity on house flies by contact” value is on record as “−”.

Take `C[S+]([O-])CC1COC(C)(c2nn(-c3c(Cl)cc(C(F)(F)F)cc3Cl)c(N)c2S(C)(=O)=O)O1` (stereo not shown) [Compound 31]: in assay [2], the “Systemic activity on aphids” value is “X”. For the same molecule, in assay [4], the “Foliar activity on aphids” value was “+”. For the same molecule, in assay [3], the “Activity on house flies by contact” value is “+”.

As to `CCNc1c(SC)c(C2(C)OCCO2)nn1-c1c(Cl)cc(C(F)(F)F)cc1Cl` [Compound 36], in assay [2], the “Systemic activity on aphids” value is given as “X”. Moreover, the “Foliar activity on aphids” value in assay [4] is “+”. Besides, the “Activity on house flies by contact” value in assay [3] is given as “X”.

Turning to `CCNc1c([S+](C)[O-])c(C2(C)OCCO2)nn1-c1c(Cl)cc(C(F)(F)F)cc1Cl` (stereo not shown) [Compound 37], the “Systemic activity on aphids” value in assay [2] is reported as “X”. Further, the “Foliar activity on aphids” value in assay [4] is given as “X”. Besides, the “Activity on house flies by contact” value in assay [3] was “X”.

Take `CNc1c(SC)c(C2(C)OCCO2)nn1-c1c(Cl)cc(C(F)(F)F)cc1Cl` [Compound 38]: the “Systemic activity on greenbugs” value in assay [1] was “X”. Besides, in assay [2], the “Systemic activity on aphids” value was “X”. The “Activity on house flies by contact” value in assay [3] is reported as “X”.
